According to PMC11530689, “Anti colorectal cancer activity and in silico studies of novel pyridine nortopsentin analog as cyclin dependent kinase 6 inhibitor” (Scientific Reports, 2024):

How the values were obtained:
HCT-116 = experiment: NCI 60 cell line screen; type: cell-based, human; settings: HCT-116, Colon Cancer; single concentration 10^−5 M
Procedure: (§1) The cytotoxic activity of nortopsintin analogs (4a-4j) was determined by the national cancer institute (NCI, Bethesda, Maryland, USA) against 60 different cancer cell lines at a single concentration of (10^-5 M). For the determination of IC50 value, we used MTT assay kit (Sigma) according to the manufacturer's protocol. HCT-116 cells were seeded into a 96-well plate at a concentration of 20,000 cells/well. After 24 h, the media was aspirated and replaced with serum-free media containing serial dilutions of the 4i compound. […] The percentage of cytotoxicity was calculated using the following equation: % Cytotoxicity = [1 - ([…])] × 100.

SN12C = experiment: NCI 60 cell line screen; type: cell-based; settings: Renal Cancer, single concentration 10^−5 M
Outline: (§2)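 Cytotoxicity was determined at 10^-5 M in the NCI sixty-cell-line program; each line received that single concentration.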

RXF 393 = experiment: NCI 60 cell line screen; type: cell-based; settings: RXF 393, Renal Cancer; single concentration 10^−5 M
Outline: as §2

HCT-15 = experiment: NCI 60 cell line screen; type: cell-based; settings: HCT-15, Colon Cancer; single concentration 10^−5 M
Outline: as §2

786-0 = experiment: NCI 60 cell line screen; type: cell-based; settings: 786-0, Renal Cancer; single concentration 10^−5 M
Outline: as §2

SR = experiment: NCI 60 cell line screen; type: cell-based; settings: Leukemia, single concentration 10^−5 M
Outline: as §2

UACC-62 = experiment: NCI 60 cell line screen; type: cell-based; settings: UACC-62, Melanoma; single concentration 10^−5 M
Outline: as §2

T-47D = experiment: NCI 60 cell line screen; type: cell-based; settings: Breast Cancer, single concentration 10^−5 M
Outline: as §2

COLO205 = experiment: NCI 60 cell line screen; type: cell-based; settings: COLO205, Colon Cancer; single concentration 10^−5 M
Outline: as §2

EKVX = experiment: NCI 60 cell line screen; type: cell-based; settings: Non-Small Cell Lung Cancer, single concentration 10^−5 M
Outline: as §2

HOP-62 = experiment: NCI 60 cell line screen; type: cell-based; settings: HOP-62, Non-Small Cell Lung Cancer; single concentration 10^−5 M
Outline: as §2

OVCAR-4 = experiment: NCI 60 cell line screen; type: cell-based; settings: OVCAR-4, Ovarian Cancer; single concentration 10^−5 M
Outline: as §2

UACC-257 = experiment: NCI 60 cell line screen; type: cell-based; settings: UACC-257, Melanoma; single concentration 10^−5 M
Outline: as §2

NCI-H460 = experiment: NCI 60 cell line screen; type: cell-based; settings: NCI-H460, Non-Small Cell Lung Cancer; single concentration 10^−5 M
Outline: as §2

MDA-MB-468 = experiment: NCI 60 cell line screen; type: cell-based; settings: MDA-MB-468, Breast Cancer; single concentration 10^−5 M
Outline: as §2

SNB-75 = experiment: NCI 60 cell line screen; type: cell-based; settings: SNB-75, CNS Cancer; single concentration 10^−5 M
Outline: as §2

CAKI-1 = experiment: NCI 60 cell line screen; type: cell-based; settings: CAKI-1, Renal Cancer; single concentration 10^−5 M
Outline: as §2

SNB-19 = experiment: NCI 60 cell line screen; type: cell-based; settings: SNB-19, CNS Cancer; single concentration 10^−5 M
Outline: as §2

A549/ATCC = experiment: NCI 60 cell line screen; type: cell-based; settings: Non-Small Cell Lung Cancer, single concentration 10^−5 M
Outline: as §2

OVCAR-8 = experiment: NCI 60 cell line screen; type: cell-based; settings: OVCAR-8, Ovarian Cancer; single concentration 10^−5 M
Outline: as §2

U251 = experiment: NCI 60 cell line screen; type: cell-based; settings: U251, CNS Cancer; single concentration 10^−5 M
Outline: as §2

MOLT-4 = experiment: NCI 60 cell line screen; type: cell-based; settings: MOLT-4, Leukemia; single concentration 10^−5 M
Outline: as §2

RPMI-8226 = experiment: NCI 60 cell line screen; type: cell-based; settings: RPMI-8226, Leukemia; single concentration 10^−5 M
Outline: as §2

HCT116 cells = experiment: Cell cycle analysis by FACS (PI staining); type: cell-based, human; settings: HCT116, treated with IC50 for 48 h, control 41.93%
Procedure: Briefly, HCT116 cells were treated with 4i compound’s IC50 for 48 h. Then, the cells were fixed in cold 70% ethanol solution for 2 h at 4 °C and centrifuged at 800 g for 5 min. The ethanol solution was removed. PBS was used to wash the cells twice. DNA was stained with 1 µg/mL propidium iodide (PI) solution (Sigma-Aldrich, St. Louis, MO, USA), supplemented with 100 µg/mL RNase A (Roche, Basel, Switzerland) for 30 min in the dark at 37 °C. After centrifugation, the cells were suspended in phosphate buffer solution and the fluorescence was measured using flow cytometry by FACSCalibur (BD Biosciences, Mountain View, CA). The data were analyzed using the CellQuest software (BD Biosciences).

[1] = test system: 60 different cancer cell lines; experiment: NCI screen against 60 cancer cell lines, overall; type: cell-based; settings: single concentration 10^−5 M
Procedure: as §1

CDK6/Cyclin D3 = CDK6/Cyclin D3 (Homo sapiens, UniProt Q00534); experiment: Cyclin dependent kinase enzymatic activity assay (ADP-Glo); type: biochemical
Procedure: (§3) ADP-Glo™ Kinase Assay kit (Promega, USA) was used for the enzymatic activity analysis according to the manufacturer’s instructions. In brief, to each well we added 1 μl of inhibitor, 2 μl of each cyclin dependent kinase enzymes, and 2 μl of substrate/ATP mix and incubated at room temperature for 60 min. After that 5 μl of ADP‐Glo™ reagent was added and incubated at room temperature for 40 min. 10 μl of kinase detection reagent was added and incubated at room temperature for 30 min, then the luminescence was measured.

CDK4/Cyclin D3 = CDK4/Cyclin D3 (Homo sapiens, UniProt P11802); experiment: as above; type: biochemical
Procedure: as §3

CDK2/Cyclin E1 = CDK2/Cyclin E1 (Homo sapiens, UniProt P24941); experiment: as above; type: biochemical
Procedure: as §3

Sequence of CDK6/Cyclin D3 (Q00534 whole entry): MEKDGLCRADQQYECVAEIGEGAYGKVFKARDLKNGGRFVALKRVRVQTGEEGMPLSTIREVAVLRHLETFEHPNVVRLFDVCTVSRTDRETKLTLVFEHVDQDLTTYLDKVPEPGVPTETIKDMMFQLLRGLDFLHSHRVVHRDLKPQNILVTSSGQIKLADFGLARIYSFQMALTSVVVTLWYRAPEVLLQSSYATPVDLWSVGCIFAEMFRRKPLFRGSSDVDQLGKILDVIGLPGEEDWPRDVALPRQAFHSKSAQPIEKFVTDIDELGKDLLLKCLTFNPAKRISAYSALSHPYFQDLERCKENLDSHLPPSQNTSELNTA
Sequence of CDK6/Cyclin D3 (P30281 whole entry partner): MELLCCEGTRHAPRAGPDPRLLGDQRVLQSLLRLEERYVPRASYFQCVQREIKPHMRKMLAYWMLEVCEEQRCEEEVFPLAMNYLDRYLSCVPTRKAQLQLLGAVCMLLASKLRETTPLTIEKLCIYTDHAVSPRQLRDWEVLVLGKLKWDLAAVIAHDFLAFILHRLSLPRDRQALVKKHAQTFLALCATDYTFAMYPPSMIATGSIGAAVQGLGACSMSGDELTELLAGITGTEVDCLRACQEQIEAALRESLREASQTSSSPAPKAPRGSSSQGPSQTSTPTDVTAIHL
Sequence of CDK4/Cyclin D3 (P11802 whole entry): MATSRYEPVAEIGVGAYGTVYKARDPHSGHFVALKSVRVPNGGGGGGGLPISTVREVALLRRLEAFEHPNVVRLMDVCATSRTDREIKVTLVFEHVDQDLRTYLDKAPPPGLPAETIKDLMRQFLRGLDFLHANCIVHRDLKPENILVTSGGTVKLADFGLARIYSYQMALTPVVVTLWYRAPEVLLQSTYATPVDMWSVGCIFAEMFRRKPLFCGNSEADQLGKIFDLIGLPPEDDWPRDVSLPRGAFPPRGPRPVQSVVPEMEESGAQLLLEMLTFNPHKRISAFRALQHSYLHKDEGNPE
Sequence of CDK4/Cyclin D3 (P30281 whole entry partner): as the sequence (P30281 whole entry partner) above

## CN(C)c1ccc(-c2cc(-c3c[nH]c4ccccc34)nc(-c3c[nH]c4ccccc34)c2C#N)cc1 [4i]
HCT-116
  Growth %: 57.78%
SN12C
  Growth %: 92.07%
RXF 393
  Growth %: 106.90%
HCT-15
  Growth %: 44.65%
786-0
  Growth %: 99.08%
SR
  Growth %: 32.38%
UACC-62
  Growth %: 85.78%
T-47D
  Growth %: 95.86%
COLO205
  Growth %: 91.18%
EKVX
  Growth %: 93.75%
HOP-62
  Growth %: 82.30%
OVCAR-4
  Growth %: 95.26%
UACC-257
  Growth %: 101.12%
NCI-H460
  Growth %: 60.31%
MDA-MB-468
  Growth %: 81.79%
SNB-75
  Growth %: 86.73%
CAKI-1
  Growth %: 68.37%
SNB-19
  Growth %: 79.65%
A549/ATCC
  Growth %: 89.56%
OVCAR-8
  Growth %: 96.39%
U251
  Growth %: 92.50%
MOLT-4
  Growth %: 98.39%
RPMI-8226
  Growth %: 69.39%
HCT116 cells
  cells at G1 phase (%DIP G1): 47.62%
[1]
  cytotoxic / antiproliferative activity over the panel: highest level of cytotoxic activity
CDK6/Cyclin D3
  IC50: 98 nM
CDK4/Cyclin D3
  IC50: 265 nM
CDK2/Cyclin E1
  IC50: 658 nM

## N#Cc1c(-c2ccc(Br)cc2)cc(-c2c[nH]c3ccccc23)nc1-c1c[nH]c2ccccc12 [4b]
HCT-116
  Growth %: 104.37%
SN12C
  Growth %: 96.36%
RXF 393
  Growth %: 109.74%
HCT-15
  Growth %: 97.86%
786-0
  Growth %: 101.55%
SR
  Growth %: 94.65%
UACC-62
  Growth %: 94.51%
T-47D
  Growth %: 85.37%
COLO205
  Growth %: 111.43%
EKVX
  Growth %: 85.89%
HOP-62
  Growth %: 98.17%
OVCAR-4
  Growth %: 102.16%
UACC-257
  Growth %: 107.82%
NCI-H460
  Growth %: 106.47%
MDA-MB-468
  Growth %: 104.30%
SNB-75
  Growth %: 91.48%
CAKI-1
  Growth %: 81.43%
SNB-19
  Growth %: 98.35%
A549/ATCC
  Growth %: 98.58%
OVCAR-8
  Growth %: 96.50%
U251
  Growth %: 94.64%
MOLT-4
  Growth %: 99.47%
RPMI-8226
  Growth %: 102.03%
